Experimental data as given in ChEMBL document CHEMBL1201862, “PubChem BioAssay data set” (2004).
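Cells were grown in 96-well plates and exposed to each compound for 48 hours at five concentrations; endpoints were interpolated linearly between bracketing concentrations, or set to the highest concentration if not reached. GI50: concentration for 50% inhibition of growth.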 The source made the active and inactive calls. Rule as the data show it: active = GI50 up to about 1.1 µM and inactive = higher.

Key:
Experiment in all cases: inhibition of tumour cell growth, NCI panel, 48 h
SW-620 = test system: SW-620
M14 = test system: M14
SF-539 = test system: SF-539
EKVX = test system: EKVX
SK-MEL-28 = test system: SK-MEL-28
IGROV-1 = test system: IGROV-1
HT-29 = test system: HT-29
NCI/ADR-RES = test system: NCI/ADR-RES
T47D = test system: T47D
CCRF-CEM = test system: CCRF-CEM
U-251 = test system: U-251
NCI-H23 = test system: NCI-H23
HCT-116 = test system: HCT-116
KM12 = test system: KM12
ACHN = test system: ACHN
SR = test system: SR
RXF 393 = test system: RXF 393
BT-549 = test system: BT-549
OVCAR-5 = test system: OVCAR-5
Malme-3M = test system: Malme-3M

Compound | GI50 (SW-620) | GI50 (M14) | GI50 (SF-539) | GI50 (EKVX) | GI50 (SK-MEL-28) | GI50 (IGROV-1) | GI50 (HT-29) | GI50 (NCI/ADR-RES) | GI50 (T47D) | GI50 (CCRF-CEM) | GI50 (U-251) | GI50 (NCI-H23) | GI50 (HCT-116) | GI50 (KM12) | GI50 (ACHN) | GI50 (SR) | GI50 (RXF 393) | GI50 (BT-549) | GI50 (OVCAR-5) | GI50 (Malme-3M)
COc1cc(OC)cc(Oc2nc3c(N)cc(C(F)(F)F)cc3nc2-c2ccccc2)c1 | 28.5 µM (inactive) | 49.3 µM (inactive) | 99.3 µM (inactive) | 25.5 µM (inactive) | 61.8 µM (inactive) | 21.8 µM (inactive) | 15.9 µM (inactive) | 52.6 µM (inactive) | 3.14 µM (inactive) | 12.8 µM (inactive) | 44.8 µM (inactive) | 92.7 µM (inactive) | 22.6 µM (inactive) | 13.8 µM (inactive) | 28.5 µM (inactive) | 11.1 µM (inactive) | 21.1 µM (inactive) | > 100 µM (inactive) |  | 
N#Cc1c(Nc2nc3ccccc3s2)c2ccccc2n2c1nc1ccccc12 | > 100 µM (inactive) | > 100 µM (inactive) | > 100 µM (inactive) | > 100 µM (inactive) | > 100 µM (inactive) | > 100 µM (inactive) | > 100 µM (inactive) | 72.4 µM (inactive) | > 100 µM (inactive) |  | 90.8 µM (inactive) | > 100 µM (inactive) | > 100 µM (inactive) | > 100 µM (inactive) | 79.8 µM (inactive) | > 100 µM (inactive) |  | > 100 µM (inactive) | > 100 µM (inactive) | > 100 µM (inactive)
C=Cc1nc(C#N)c(N)o1 | > 100 µM (inactive) | > 100 µM (inactive) | > 100 µM (inactive) | > 100 µM (inactive) | > 100 µM (inactive) | > 100 µM (inactive) | > 100 µM (inactive) | > 100 µM (inactive) | > 100 µM (inactive) | > 100 µM (inactive) | > 100 µM (inactive) | > 100 µM (inactive) | > 100 µM (inactive) | > 100 µM (inactive) |  |  | > 100 µM (inactive) | > 100 µM (inactive) | > 100 µM (inactive) | > 100 µM (inactive)
CC(C)(CNC(=O)/C(Cl)=C(/Cl)C(=O)O)CNC(=O)/C(Cl)=C(/Cl)C(=O)O | 40.6 µM (inactive) |  | 67.6 µM (inactive) | > 100 µM (inactive) | > 100 µM (inactive) | > 100 µM (inactive) | 48.5 µM (inactive) | > 100 µM (inactive) | 92.7 µM (inactive) | 39.3 µM (inactive) | > 100 µM (inactive) |  | 36.2 µM (inactive) | > 100 µM (inactive) | 28.4 µM (inactive) | 44.6 µM (inactive) | > 100 µM (inactive) | > 100 µM (inactive) | > 100 µM (inactive) | 
CC(=O)OC12C3C4C1C1C2C3C41OC(C)=O (stereo unspecified) | > 100 µM (inactive) | > 100 µM (inactive) | > 100 µM (inactive) | > 100 µM (inactive) | > 100 µM (inactive) | > 100 µM (inactive) | > 100 µM (inactive) | > 100 µM (inactive) | > 100 µM (inactive) | > 100 µM (inactive) | > 100 µM (inactive) | > 100 µM (inactive) | > 100 µM (inactive) | > 100 µM (inactive) | > 100 µM (inactive) | > 100 µM (inactive) | > 100 µM (inactive) | > 100 µM (inactive) | > 100 µM (inactive) | 
N#CC(N)c1ccc(OCCCCCCCCCCOc2ccc(C(N)C#N)cc2)cc1 (stereo unspecified) | > 100 µM (inactive) | > 100 µM (inactive) | > 100 µM (inactive) | > 100 µM (inactive) | > 100 µM (inactive) | > 100 µM (inactive) | > 100 µM (inactive) | 27.8 µM (inactive) | 84.1 µM (inactive) | 13.8 µM (inactive) | 65.3 µM (inactive) | > 100 µM (inactive) | 80 µM (inactive) | > 100 µM (inactive) | > 100 µM (inactive) |  | 43.2 µM (inactive) | > 100 µM (inactive) | > 100 µM (inactive) | > 100 µM (inactive)
Cc1ccc2ccc3ccc(C)nc3c2n1 [NEOCUPROINE] | 51.5 µM (inactive) | > 22.2 µM (inactive) | 49.2 µM (inactive) | > 100 µM (inactive) | > 100 µM (inactive) | 0.429 µM (active) | 0.908 µM (active) | > 100 µM (inactive) | 1.06 µM (active) | 0.59 µM (active) | 7.31 µM (inactive) | 0.439 µM (active) | 0.349 µM (active) | 12.5 µM (inactive) | > 100 µM (inactive) | 0.728 µM (active) | > 42 µM (inactive) | > 100 µM (inactive) |  | > 100 µM (inactive)
Cc1ccc2c(c1)C=CC1(O2)N(c2ccccc2)C(=S)OC1(C)C (stereo unspecified) | 75.5 µM (inactive) | 43.8 µM (inactive) |  | 30 µM (inactive) | > 100 µM (inactive) | 10.1 µM (inactive) | 41.5 µM (inactive) | > 100 µM (inactive) | 3.86 µM (inactive) | 53 µM (inactive) | 83.8 µM (inactive) | 35.4 µM (inactive) | 21.5 µM (inactive) | 34.5 µM (inactive) | > 100 µM (inactive) | 14.5 µM (inactive) | 73.3 µM (inactive) | > 100 µM (inactive) | 33.7 µM (inactive) | 
OCCCNc1[nH]cnc2nncc1-2 | > 100 µM (inactive) | > 100 µM (inactive) | 41.1 µM (inactive) | > 100 µM (inactive) | > 100 µM (inactive) | > 100 µM (inactive) | > 100 µM (inactive) | > 100 µM (inactive) | > 100 µM (inactive) | > 100 µM (inactive) | > 100 µM (inactive) | > 100 µM (inactive) | > 100 µM (inactive) | > 100 µM (inactive) | > 100 µM (inactive) |  | > 100 µM (inactive) | > 100 µM (inactive) | > 100 µM (inactive) | > 100 µM (inactive)
CN(C(=O)C1CCCCCC1=O)c1ccccc1Cl (stereo unspecified) | > 100 µM (inactive) | > 100 µM (inactive) | > 100 µM (inactive) | > 100 µM (inactive) | > 100 µM (inactive) | > 100 µM (inactive) | > 100 µM (inactive) | > 100 µM (inactive) | > 100 µM (inactive) |  | > 100 µM (inactive) | > 100 µM (inactive) | > 100 µM (inactive) | > 100 µM (inactive) | > 100 µM (inactive) |  | > 100 µM (inactive) | > 100 µM (inactive) | > 100 µM (inactive) | > 100 µM (inactive)
CC(=O)Nc1ccc(C(=O)NN2C(=O)C(Cl)C2c2cc(Br)ccc2O)cc1 (stereo unspecified) | 6.21 µM (inactive) | 4.54 µM (inactive) | 4.19 µM (inactive) | 28.8 µM (inactive) | 4.38 µM (inactive) | 17.6 µM (inactive) | 9.46 µM (inactive) | 3.65 µM (inactive) | 4.16 µM (inactive) | 1.85 µM (inactive) | 2.59 µM (inactive) | 5.75 µM (inactive) | 3.69 µM (inactive) | 3.44 µM (inactive) | 2.99 µM (inactive) | 3.45 µM (inactive) |  | 14.8 µM (inactive) | 19.2 µM (inactive) | 5.55 µM (inactive)
Cc1[nH]c2ncn(N)c(=N)c2c1Cc1ccccc1 | > 100 µM (inactive) | > 100 µM (inactive) | 58.2 µM (inactive) | > 100 µM (inactive) | > 100 µM (inactive) | 80.4 µM (inactive) | 67.9 µM (inactive) | 82 µM (inactive) | 4.35 µM (inactive) | > 100 µM (inactive) | > 100 µM (inactive) | > 100 µM (inactive) | > 100 µM (inactive) | > 100 µM (inactive) | > 100 µM (inactive) | > 100 µM (inactive) |  | > 100 µM (inactive) | > 100 µM (inactive) | 6.76 µM (inactive)
S=C1Nc2cnc3ccccc3c2SC1c1ccccc1 (stereo unspecified) |  | > 100 µM (inactive) |  | > 100 µM (inactive) | 92.3 µM (inactive) | > 100 µM (inactive) | > 100 µM (inactive) | > 100 µM (inactive) | > 100 µM (inactive) |  | > 100 µM (inactive) | 96.4 µM (inactive) | > 100 µM (inactive) | > 100 µM (inactive) | > 100 µM (inactive) | > 100 µM (inactive) | 13 µM (inactive) | > 100 µM (inactive) | > 100 µM (inactive) | > 100 µM (inactive)
Cc1c(-c2ccccc2)n[nH]c1NC1(C)C(=O)N(/N=C/c2ccccc2)N=C1c1ccccc1 (stereo unspecified) | > 93.3 µM (inactive) | > 87.3 µM (inactive) | > 100 µM (inactive) | > 91.6 µM (inactive) | > 100 µM (inactive) | > 100 µM (inactive) | > 100 µM (inactive) | 43.8 µM (inactive) | > 26 µM (inactive) | 25.9 µM (inactive) | > 33.6 µM (inactive) | > 100 µM (inactive) | > 59.2 µM (inactive) | 38.6 µM (inactive) | 24.7 µM (inactive) |  | > 29.8 µM (inactive) | > 100 µM (inactive) | > 100 µM (inactive) | > 100 µM (inactive)
COc1c(-c2nc3ccc(N4CCN(C)CC4)nc3[nH]2)cc(OC)c2c1nc(CO)n2C | > 100 µM (inactive) | > 100 µM (inactive) | 53.3 µM (inactive) | > 100 µM (inactive) | > 100 µM (inactive) | > 100 µM (inactive) | > 100 µM (inactive) | > 100 µM (inactive) | > 100 µM (inactive) | > 100 µM (inactive) | > 100 µM (inactive) | > 100 µM (inactive) | > 100 µM (inactive) | > 100 µM (inactive) | > 100 µM (inactive) |  | > 100 µM (inactive) | > 100 µM (inactive) | > 100 µM (inactive) | > 100 µM (inactive)
